According to patent publication US20140024653A1, “COMPOSITIONS AND METHODS FOR TREATING CANCER USING PI3K INHIBITOR AND MEK INHIBITOR” (priority 2011, published 2014):
Like-named read-outs stand apart in the source and are kept apart here.

How the values were obtained:
[1] = mice; cited from earlier work
BT20 = experiment: SRB cell growth assay, 72 h; type: cell-based, human; conditions: single agent
[2] = system: human colon carcinoma HCT 116
Description: Mice were over 18 g at start of treatment after an acclimatization time of at least 5 days. […] The mice were housed on a 12 hours light/dark cycle.
Human colon carcinoma HCT 116 cells were purchased at American Type Culture Collection [(ATCC), Rockville, Md., USA). The HCT 116 cells were cultured in Dulbecco's modified Eagle's medium (DMEM) (Invitrogen).
The animals required to begin a given experiment were pooled and implanted monolaterally on day 0. Treatments were administered on measurable tumors. The solid tumors were allowed to grow to the desired volume range (animals with tumors not in the desired range were excluded). The mice were then pooled and unselectively distributed to the various treatment and control groups. […] The dosages are expressed in mg/kg, based on the body weight at start of therapy. Mice were checked daily, and adverse clinical reactions noted. Each group of mice was weighed as a whole daily until the weight nadir was reached. Then, groups were weighed once to thrice weekly until the end of the experiment. Tumors were measured with a caliper 2 to 3 times weekly until final sacrifice for sampling time, tumor reached 2000 mm^3 or until the animal died (whichever comes first). Solid tumor volumes were estimated from two-dimensional tumor measurements and calculated according to the following equation:
Animal body weights included the tumor weight.
Changes in tumor volume for each treated (T) and control (C) group were calculated for each tumor by subtracting the tumor volume on the day of first treatment (staging day) from the tumor volume on the specified observation day. The median ΔT is calculated for the treated group, and the median ΔC is calculated for the control group. Then the ratio ΔT/ΔC is calculated and expressed as a percentage. The dose is considered as therapeutically active when ΔT/ΔC is lower than 40% and very active when ΔT/ΔC is lower than 10%.
The percent of tumor regression is defined as the % of tumor volume decrease in the treated group at a specified observation day compared to its volume on the first day of treatment. At a specific time point and for each animal, % regression is calculated. The median % regression is then calculated for the group using the following equation:
Partial regression: Regressions are defined as partial if the tumor volume decreases to 50% of the tumor volume at the start of treatment.
Complete regression: The CR is achieved when tumor volume=0 mm^3 (CR is considered when tumor volume cannot be recorded).

CASKI = experiment: SRB cell growth assay, 72 h; type: cell-based, human; conditions: single agent
JAR = experiment: SRB cell growth assay, 72 h; type: cell-based, human; conditions: single agent, up to 50 μM
Description: (§1) Cell growth and treatment were performed in 96-well microtitre plates CELLSTAR® (Greiner Bio-One, Germany). Cells harvested from exponential phase cultures by trypsinization were plated in 150 μl of media at optimal seeding densities. The optimal seeding densities for each cell line were determined to ensure exponential growth for the duration of the experiment. All cells growing without anticancer agents were sub-confluent by the end of the treatment as determined by visual inspection.
(§2) 150 μl of cells, after a 24-hour pre-growth period, were treated by mixing with 50 μl of the compound containing media (resulting in a final DMSO concentration of 0.1%). The cells were allowed to grow at 37° C. for 72 hours. In addition, all experiments contained a few plates with cells that were processed for measurement immediately after the 24 hours recovery period. These plates contained information about the cell number that existed before treatment, at time zero, and served to calculate the cytotoxicity.
(§3) After treatment, cells were precipitated by addition of 10% TCA. Prior to fixation, the media was aspirated as described. After an hour of incubation at 4° C., the plates were washed two times with 400 μl of deionized water. Cells were then stained with 100 μl of a 0.08% wt/v SRB. The plates were allowed to sit for at least 30 min. and washed six times with 1% acetic acid to remove unbound stain. The plates were left to dry at room temperature and bound SRB was solubilized with 100 μl of 10 mM Tris base. Measurement of optical density was performed at 560 nm on a Victor 2 plate reader (Perkin Elmer, Germany). The SRB values for A375 and H460 cell lines were near to saturation (2.5 OD units) due to the high protein content of these cells, but not cell confluence. The measurements for these cells were performed at 520 nm instead of 560 nm.
(§4) Using these measurements, cellular responses can be calculated for incomplete inhibition of cell growth (GI), complete inhibition of cell growth (T GI) and net loss of cells (LC) due to compound activity. […] This is the drug concentration causing a 50% reduction compared to the net protein increase in control cells during the drug incubation period. In other words, GI50 is IC50 corrected for time zero. Similar to IC90, calculated GI90 values are also reported for all compounds tested. TGI was calculated from Ti=Tz. […] It was calculated as 100×[(Ti−Tz)/Tz]=−50. However, due to 72 hours treatment, low cell seeding density was required and LC50 could rarely be achieved.

NCIH82 = experiment: SRB cell growth assay, 72 h; type: cell-based, human; conditions: single agent, up to 50 μM
Description: as §1, §2, §3, §4

SF268 = experiment: SRB cell growth assay, 72 h; type: cell-based, human; conditions: single agent, up to 50 μM
Description: as §1, §2, §3, §4

MDAMB436 = experiment: SRB cell growth assay, 72 h; type: cell-based, human; conditions: single agent, up to 50 μM
Description: as §1, §2, §3, §4

PLCPRF5 = experiment: SRB cell growth assay, 72 h; type: cell-based, human; conditions: single agent, up to 50 μM
Description: as §1, §2, §3, §4

HEK293 = experiment: SRB cell growth assay, 72 h; type: cell-based, human; conditions: single agent, up to 50 μM
Description: as §1, §2, §3, §4

JEG3 = experiment: SRB cell growth assay, 72 h; type: cell-based, human; conditions: single agent, up to 50 μM
Description: as §1, §2, §3, §4

HT1080 = experiment: SRB cell growth assay, 72 h; type: cell-based, human
Description: as §1, §2, §3, §4

MHHES1 = experiment: SRB cell growth assay, 72 h; type: cell-based, human; conditions: single agent, up to 50 μM
Description: as §1, §2, §3, §4

J82 = experiment: SRB cell growth assay, 72 h; type: cell-based, human; conditions: single agent, up to 50 μM
Description: as §1, §2, §3, §4

[3] = system: human colon carcinoma HCT 116; experiment: HCT116 tumor growth in fluorescence molecular tomography study; type: in vivo, SCID mice; conditions: NS
PANC1 = experiment: SRB cell growth assay, 72 h; type: cell-based, human; conditions: single agent
217 kinases = conditions: tested at 10 μM; cited from earlier work
90 non-kinase targets = conditions: tested at 10 μM; cited from earlier work
[4] = system: resting Peripheral Blood Mononuclear Cells, PBMC; experiment: SRB cell growth assay, 72 h, non-proliferating cells; type: cell-based
Description: Cell lines were selected to represent 17 different indications with many different genetic variations and biochemical characteristics. In addition, the study included resting Peripheral Blood Mononuclear Cells, PBMC, as a model for non-proliferating cells.
as §1, with “inspection. […]” for “inspection.”
After treatment, cells were precipitated by addition of 10% TCA. […] Measurement of optical density was performed at 560 nm on a Victor 2 plate reader (Perkin Elmer, Germany). […]
Using these measurements, cellular responses can be calculated for incomplete inhibition of cell growth (GI), complete inhibition of cell growth (T GI) and net loss of cells (LC) due to compound activity. […] Similar to IC90, calculated GI90 values are also reported for all compounds tested. TGI was calculated from Ti=Tz. […] It was calculated as 100×[(Ti−Tz)/Tz]=−50. […]

DU145 = experiment: SRB cell growth assay, 72 h; type: cell-based, human; conditions: single agent
COLO678 = experiment: SRB cell growth assay, 72 h; type: cell-based; conditions: Homo sapiens
Description: as §1, §2, §3, §4

HCT116 = experiment: SRB cell growth assay, 72 h; type: cell-based, human
[5] = system: PC-3, U87-MG, A2058, WM-266-4 and MCF7 xenografts; conditions: oral administration alone; PTEN-deficient PC-3, U87-MG, A2058, WM-266-4 or PIK3CA mutated MCF7 xenografts; cited from earlier work
[6] = study 1, (1) 5 mg/kg PO daily days 11-18
[7] = study 2, (1) 10 mg/kg PO daily days 11-18 (day 17: 20 mg/kg)
[8] = study 2, (1) 20 mg/kg PO daily days 11-18
[9] = study 3, (1) 10 mg/kg PO daily days 11-20
[10] = study 3, (1) 20 mg/kg PO daily days 11-20
[11] = study 4, (1) 10 mg/kg PO daily days 11-20
[12] = study 4, (1) 20 mg/kg PO daily days 11-20
[13] = study 1, (2b) 30 mg/kg PO daily days 11-18
[14] = study 2, (2b) 20 mg/kg PO daily days 11-18
[15] = study 4, (2b) 20 mg/kg PO daily days 11-20

O=C(NC[C@H](O)CO)c1ccncc1Nc1ccc(I)cc1F [Compound (1), N—((S)-2,3-dihydroxypropyl)-3-(2-fluoro-4-iodo-phenylamino)isonicotinamide]
two-week maximum tolerated dose [1]: 60 mg/kg BID
z-score MSC6369 (BT20): 0.02
Average body weight change in % per mouse at nadir [2, 6]: −3.4 (14) %
Drug death [2, 6]: 0/7
Regressions Complete [2, 6]: 0/7
Regressions Partial [2, 6]: 0/7
Median ΔT/ΔC in % day 18 ([2]; study 1, (1) 5 mg/kg PO daily days 11-18, 5 mg/kg): 70%
tolerability ([2]; study 1, as single agents or used in combination): well-tolerated, inducing minimal BWL
Average body weight change in % per mouse at nadir [2, 7]: −2.2 (18) %
Drug death [2, 7]: 0/7
Median ΔT/ΔC in % day 18 [2, 7]: 20%
Regressions Complete [2, 7]: 0/7
Regressions Partial [2, 7]: 0/7
Average body weight change in % per mouse at nadir [2, 8]: −1.1 (15) %
Drug death [2, 8]: 0/7
Median ΔT/ΔC in % day 18 [2, 8]: 22%
Regressions Complete [2, 8]: 0/7
Regressions Partial [2, 8]: 0/7
tolerability ([2]; study 2, as single agents): well-tolerated, inducing minimal BWL
Average body weight change in % per mouse at nadir [2, 9]: −4.9 (20) %
Drug death [2, 9]: 0/10
Regressions Complete [2, 9]: 0/10
Regressions Partial [2, 9]: 0/10
Median ΔT/ΔC in % day 20 ([2]; study 3, (1) 10 mg/kg PO daily days 11-20, 10 mg/kg): 43%
Average body weight change in % per mouse at nadir [2, 10]: −3.6 (19) %
Drug death [2, 10]: 0/10
Median ΔT/ΔC in % day 20 [2, 10]: 34%
Regressions Complete [2, 10]: 0/10
Regressions Partial [2, 10]: 0/10
tolerability ([2]; study 3, as single agents): well-tolerated, inducing minimal BWL
Average body weight change in % per mouse at nadir [2, 11]: −2.3 (13) %
Drug death [2, 11]: 0/10
Regressions Complete [2, 11]: 0/10
Regressions Partial [2, 11]: 0/10
Median ΔT/ΔC in % day 20 ([2]; study 4, (1) 10 mg/kg PO daily days 11-20, 10 mg/kg): 53%
Average body weight change in % per mouse at nadir [2, 12]: −4.1 (18) %
Drug death [2, 12]: 0/10
Regressions Complete [2, 12]: 0/10
Regressions Partial [2, 12]: 0/10
Median ΔT/ΔC in % day 20 ([2]; study 4, (1) 20 mg/kg PO daily days 11-20, 20 mg/kg): 41%
tolerability ([2]; study 4, as single agents): well-tolerated, inducing minimal BWL
z-score MSC6369 (CASKI): 1.55
activity (cell growth inhibition) (JAR): minimal activity
activity (cell growth inhibition) (NCIH82): minimal activity
activity (cell growth inhibition) (SF268): minimal activity
activity (cell growth inhibition) (MDAMB436): minimal activity
activity (cell growth inhibition) (PLCPRF5): minimal activity
activity (cell growth inhibition) (HEK293): minimal activity
activity (cell growth inhibition) (JEG3): minimal activity
sensitivity (HT1080): very sensitive
activity (cell growth inhibition) (MHHES1): minimal activity
activity (cell growth inhibition) (J82): minimal activity
ΔT/ΔC at the end of study ([3]; (1) 10 mg/kg oral daily day 11 to day 17): 40%
z-score MSC6369 (PANC1): 3.00
activity (cell growth inhibition) (PANC1; up to 50 μM): minimal activity
activity against 217 kinases (217 kinases): no activity
activity against 90 non-kinase targets (90 non-kinase targets): no activity
activity in resting (arrested) PBMC [4]: no activity
z-score MSC6369 (DU145): 0.73
IC50 (COLO678; COLO-678, most sensitive cell lines): 0.0048 to 0.008 µM
z-score MSC6369 (HCT116; single agent): −0.32

CCn1c(=O)c(-c2ccn[nH]2)cc2c(C)nc(N)nc21 [Compound (2b), 2-amino-8-ethyl-4-methyl-6-(1H-pyrazol-5-yl)pyrido[2,3-d]pyrimidin-7(8H)-one]
z-score MSC0765 (BT20): 0.32
Average body weight change in % per mouse at nadir [2, 13]: −6.7 (18) %
Drug death [2, 13]: 0/7
Median ΔT/ΔC in % day 18 [2, 13]: 77%
Regressions Complete [2, 13]: 0/7
Regressions Partial [2, 13]: 1/7
Average body weight change in % per mouse at nadir [2, 14]: −3.7 (15) %
Drug death [2, 14]: 0/7
Median ΔT/ΔC in % day 18 [2, 14]: 71%
Regressions Complete [2, 14]: 0/7
Regressions Partial [2, 14]: 0/7
tolerability ([2]; study 2, as single agents): well-tolerated, inducing minimal BWL
Average body weight change in % per mouse at nadir [2, 15]: −4.8 (20) %
Drug death [2, 15]: 0/10
Regressions Complete [2, 15]: 0/10
Regressions Partial [2, 15]: 0/10
tolerability ([2]; study 4, as single agents): well-tolerated, inducing minimal BWL
z-score MSC0765 (CASKI): −0.23
ΔT/ΔC at the end of study ([3]; (2b) 20 mg/kg oral daily day 11 to day 17): 80%
z-score MSC0765 (PANC1): 1.16
tumor growth [5]: inhibits tumor growth
activity in resting (arrested) PBMC [4]: no activity
z-score MSC0765 (DU145): −0.05
GI50 (COLO678; COLO-678, non-sensitive, z score >1.5): > 4 µM
GI50 (HCT116; Homo sapiens, HCT-116, non-sensitive, z score >1.5): > 4 µM
z-score MSC0765 (HCT116; single agent): 1.90
